The target of one assay is T1, PanZ (Escherichia coli, UniProt P37613).
T1 construct: co-purifies with substoichiometric CoA derivatives; monomer
T1 sequence (P37613 1-127): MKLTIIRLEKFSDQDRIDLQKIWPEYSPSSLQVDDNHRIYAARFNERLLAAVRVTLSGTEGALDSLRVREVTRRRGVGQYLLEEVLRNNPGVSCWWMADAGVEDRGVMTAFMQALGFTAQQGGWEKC
Nature of the assay: 1H-15N HSQC NMR. Particulars: 0.2 mM PanZ, 50 mM Tris-HCl pH 7.5, 0.1 M NaCl, 0.1 mM DTT, 25 °C. Type of assay: binding.

The target in assay [1] is T2, PanD-PanZ complex (PanD-PanZ.AcCoA) (Escherichia coli, UniProt P37613).
T2 construct: heterooctamer (4 PanD + 4 PanZ), about 124 kDa; with Aspartate 1-decarboxylase
Kind of assay: X-ray crystal structure. Type of assay: binding. Particulars: site on PanZ near the PanD interface; crystals from PEG 3350, bis-Tris propane pH 7.4; one AcCoA per PanZ.

Assay [2] addresses T2, PanD-PanZ complex (PanD-PanZ.AcCoA). Kind of assay: X-ray crystal structure. Type of assay: binding. To be noted: site on PanZ near the PanD interface; crystals from PEG 3350, bis-Tris propane pH 7.4; one AcCoA per PanZ. This is another data set of the same source.
In another assay the target is ADC (activated PanD) (Escherichia coli, UniProt P0A790). To be noted: without PanZ; 25 °C; 2.5 μM ADC; curves with and without PanZ.AcCoA fitted with a shared KM.

For `CC(=O)SCCNC(=O)CCNC(=O)[C@H](O)C(C)(C)COP(=O)(O)OP(=O)(O)OC[C@H]1O[C@@H](n2cnc3c(N)ncnc32)[C@H](O)[C@@H]1OP(=O)(O)O` [AcCoA], at PanZ, the “1H-15N HSQC NMR” value is reported as “Addition of excess AcCoA led to simplification of the spectrum (Figure 3D)”. Moreover, the X-ray crystal structure entry in assay [1] was “PDB ID 4CRZ (PanD(T57V)-PanZ.AcCoA)”; in assay [2], 4CS0 (PanD(S25A)-PanZ.AcCoA).
Regarding `N[C@@H](CC(=O)O)C(=O)O` [compound 5, L-aspartate], the KM entry at ADC (activated PanD) is “Individual curves are fitted to the Michaelis-Menten curve with a shared value of KM”.

The values above are taken from paper PMC4410942 (Chemistry & Biology, 2015).
